Results published in US20260273072A1, “NOVEL PLK1 DEGRADATION INDUCING COMPOUND” (UPPTHERA, INC., priority 2023, published 2026).
Read-outs that look alike come from different tables or passages of the source.

Legend:
Type in all cases: cell-based
MRC-5 cell line = test: Cell viability assay for MRC-5 cell line (EZ-Cytox); settings: for IC50: Homo sapiens, MRC5, 120 h
Method: 4. Cell Viability Assay for MRC-5 Cell Line
(1) Culture of MRC-5 Cell Line
The MRC-5 cell line was purchased from KCLB. Passage of cultured cells was maintained within P15.
(2) Treatment of Compounds of the Present Invention
Then, it was cultured in 37° C. CO2 incubator (Thermo Fisher Scientific) for 5 days.
(3) Cytotoxicity Experiment
CO2 incubator for 4 hours.

NCI-H526 cell line = test: Cell viability assay for NCI-H526 cell line (EZ-Cytox); settings: Homo sapiens, NCI-H526, 120 h; H526 cells, 5 days, 3000 nM to 0.46 nM
Method: (§1) 3. Cell Viability Assay for NCI-H69, NCI-H526 Cell Lines
(§2) (1) Culture of NCI-H69, NCI-H526 Cell Lines
(§3) The NCI-H69 (hereafter H69) and NCI-H526 (hereafter H526) cell lines were purchased from KCLB.
(§4) (2) Treatment of Compounds of the Present Invention and Method of Cell Viability Assay
(§5) After treating the compound to each well to make the total volume of 200 μl, it was cultured in a CO2 incubator (Thermo Fisher Scientific) for 5 days. […] The absorbance of the completely cultured sample was measured by setting the wavelength of a plate reader (BMG Labtech) to […], and was measured after shaking for 3 minutes in a plate reader before measurement.
(§6) The results of cell viability for H526 and H69 cell line are shown in Table 3 and Table 4, respectively.
(§7) In Table 3 and Table 4, Activity represents IC50 value of each Exemplary Compound treatment group to H526 and H69 cell line, respectively (A: <30 nM, B: <50 nM, C: <100 nM, D: <200 nM, E: <400 nM).

PLK1 = target: T1, PLK1 (Homo sapiens, UniProt P53350); test: Luciferase assay for PLK1 in HeLa LgBit (Plk1-HiBit KI) cell line; settings: 300 nM compound, luminescence after 9 hours
T1 construct: endogenous in cells; host or cells: HeLa LgBit (Plk1-HiBit KI): HeLa stably expressing LgBit, with a CRISPR/Cas9 knock-in of HiBit at the endogenous PLK1 locus
Method: 2. Luciferase Assay for PLK1
(1) Preparation and Culture of HeLa LgBit (Plk1-HiBit KI) Cell Line
A HeLa cell line in which the LgBit vector was transfected and expressed stably was prepared. Then, after constructing gRNA and donor to express the HiBit amino acid sequence behind the C-terminal of the PLK1 gene, which was inherent in the cell, it was inserted into the cell together with a vector capable of expressing CRISPR/Cas9. Only the cells in which the insertion was completed and knock-in had progressed were selected, sub-cultured and used.
For cell culture, DMEM (Gibco), FBS (Gibco), PS (Gibco), […] cell culture dish (SPL), […] cell culture dish (SPL), 96-well culture plate (SPL), PBS pH 7.4 (Gibco), TrypLE™ Express (Gibco), Cell counter (Thermo Fisher Scientific) and 0.4% Trypan Blue Solution (DYNEBIO) were used.
(2) Treatment of Compounds of the Present Invention and Method of Luciferase Assay
In the case of HeLa LgBit (Plk1-HiBit KI), the compounds were treated after being released after thymidine block, and the process was as follows. Thymidine (Sigma-Aldrich) was completely dissolved in ddH2O and used in the experiment. For thymidine block, the products were treated with 2 mM of thymidine and then incubated for 24 hours. For release and chemical treatment, the medium was suctioned and washed with 1×PBS. TrypLE™ (Gibco) was added and incubated in 37° C. CO2 incubator (Thermo Fisher Scientific) for 5 mins. Cells neutralized by adding complete media were counted through a counter. For each well of a 96-well culture plate (SPL), 3.3×10^4 cells and a total medium volume of 150 μl were seeded and incubated in a CO2 incubator.
Each cell line was incubated in a CO2 incubator for 18 hours, and Endurazine (Promega, Cat. No. N257B) was added to each well to make up 4% of the total volume. After adding compounds of Examples in a 96-well white plate (SPL) to a concentration of 300 nM, the wavelength of the plate reader (BMG Labtech, CLARIOstar Plus) was set to 470-480 nm, and then the luminescence was tracked in real time.
In Table 2, Activity represents the ratio of the luminescence value of each Exemplary Compound treatment group to DMSO treatment group (+++: <0.3, ++: <0.5, +: <0.7).

NCI-H69 cell line = test: Cell viability assay for NCI-H69 cell line (EZ-Cytox); settings: Homo sapiens, NCI-H69, 120 h; H69 cells, 5 days, 3000 nM to 0.46 nM
Method: as §1, §2, §3, §4, §5, §6, §7

[1] = read-out: Activity: IC50 value, cell viability, MRC-5 cell line (Comparative Compounds)
[2] = MRC-5 normal cell line, 5 days, 10000 nM to 1.52 nM, read-out: Activity: IC50 value, cell viability, MRC-5 cell line (Exemplary Compounds)

T1 sequence (P53350 whole entry): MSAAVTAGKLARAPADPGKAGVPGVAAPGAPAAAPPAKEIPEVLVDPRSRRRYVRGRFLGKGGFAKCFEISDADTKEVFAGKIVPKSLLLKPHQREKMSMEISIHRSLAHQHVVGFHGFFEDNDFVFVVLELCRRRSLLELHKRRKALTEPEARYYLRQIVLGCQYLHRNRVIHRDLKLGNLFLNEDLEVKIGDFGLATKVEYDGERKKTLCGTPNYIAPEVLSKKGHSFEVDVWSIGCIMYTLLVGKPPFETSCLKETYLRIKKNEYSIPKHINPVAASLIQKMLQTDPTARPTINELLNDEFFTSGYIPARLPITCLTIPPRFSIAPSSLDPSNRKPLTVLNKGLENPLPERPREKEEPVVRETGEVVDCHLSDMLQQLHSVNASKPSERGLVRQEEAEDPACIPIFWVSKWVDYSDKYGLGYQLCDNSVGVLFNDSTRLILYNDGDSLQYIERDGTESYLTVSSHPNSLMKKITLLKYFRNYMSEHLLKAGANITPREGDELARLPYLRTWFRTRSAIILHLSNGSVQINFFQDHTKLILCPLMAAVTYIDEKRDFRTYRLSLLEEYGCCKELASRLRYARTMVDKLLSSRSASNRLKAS

Structure (SMILES)	Activity: ratio of the luminescence value of compound treatment group to DMSO treatment group (PLK1)	Cytotoxicity in normal cell line versus cancer cell lines (in words) (MRC-5 cell line; MRC-5 normal cell line compared with cancer cell lines)	IC50 (MRC-5 cell line; [1])	IC50 (NCI-H526 cell line)	IC50 (MRC-5 cell line; [2])	IC50 (NCI-H69 cell line)
CC[C@@H]1C(=O)N(C)c2cnc(Nc3ccc(C(=O)NCCOCCOCCNc4cccc5c4C(=O)N(C4CCC(=O)NC4=O)C5=O)cc3OC)nc2N1C1CCCC1 (some centres unmarked) [Comparative Compound 1, reference compound]		exhibited a high level of cytotoxicity in normal cell line				
CC[C@@H]1C(=O)N(C)c2cnc(Nc3ccc(C(=O)NC4CCN(C)CC4)cc3OC)nc2N1C1CCCC1 [Comparative Compound 2, BI2536, reference compound]			3090 nM			
CC[C@@H]1C(=O)N(C)c2cnc(Nc3ccc(C(=O)N[C@H]4CC[C@H](N5CCN(CC6CC6)CC5)CC4)cc3OC)nc2N1C(C)C [Comparative Compound 3, Volasertib, reference compound]			2940 nM			
COc1cc(C(=O)NC2CCN(C)CC2)c(F)cc1Nc1ncc2c(n1)N(C1CCCC1)CC(F)(F)C(=O)N2C [Comparative Compound 4, TAK960, reference compound]			9150 nM			
COc1cc(C(=O)NN2CCC(N3CC4(CCN(c5cccc(C6CCC(=O)NC6=O)c5)CC4)C3)CC2)ccc1Nc1ncc2c(n1)N(C1CCCC1)CC(F)(F)C(=O)N2C (centres unmarked) [Compound 1, 4-((9-cyclopentyl-7,7-difluoro-5-methyl-6-oxo-6,7,8,9-tetrahydro-5H-pyrimido[4,5-b][1,4]diazepin-2-yl)amino)-N-(4-(7-(3-(2,6-dioxopiperidin-3-yl)phenyl)-2,7-diazaspiro[3.5]nonan-2-yl)piperidin-1-yl)-3-methoxybenzamide]	++ (++: <0.5)			< 30 nM	> 10000 nM	< 50 nM
COc1cc(C(=O)NN2CCC(C3CCN(c4ccc(C5CCC(=O)NC5=O)cc4F)C3)CC2)ccc1Nc1ncc2c(n1)N(C(C)C)CC(F)(F)C(=O)N2C (centres unmarked) [Compound 2, 4-((7,7-difluoro-9-isopropyl-5-methyl-6-oxo-6,7,8,9-tetrahydro-5H-pyrimido[4,5-b][1,4]diazepin-2-yl)amino)-N-(4-(1-(4-(2,6-dioxopiperidin-3-yl)-2-fluorophenyl)pyrrolidin-3-yl)piperidin-1-yl)-3-methoxybenzamide]	++ (++: <0.5)			< 50 nM	> 10000 nM	< 100 nM
COc1cc(C(=O)NC2CCN(C3CN(c4ccc(C5CCC(=O)NC5=O)cc4F)C3)CC2)ccc1Nc1ncc2c(n1)N(C(C)C)CC(F)(F)C(=O)N2C (centres unmarked) [Compound 3, 4-((7,7-difluoro-9-isopropyl-5-methyl-6-oxo-6,7,8,9-tetrahydro-5H-pyrimido[4,5-b][1,4]diazepin-2-yl)amino)-N-(1-(1-(4-(2,6-dioxopiperidin-3-yl)-2-fluorophenyl)azetidin-3-yl)piperidin-4-yl)-3-methoxybenzamide]	++ (++: <0.5)			< 50 nM	> 10000 nM	< 100 nM
CCN1CC(F)(F)C(=O)N(C)c2cnc(Nc3ccc(C(=O)NC4CC5(CCN(CC6CCN(c7ccc(C8CCC(=O)NC8=O)cc7F)CC6)CC5)C4)cc3OC)nc21 (centres unmarked) [Compound 4, N(7-((1-(4-(2,6-dioxopiperidin-3-yl)-2-fluorophenyl)piperidin-4-yl)methyl)-7-azaspiro[3.5]nonan-2-yl)-4-((9-ethyl-7,7-difluoro-5-methyl-6-oxo-6,7,8,9-tetrahydro-5H-pyrimido[4,5-b][1,4]diazepin-2-yl)amino)-3-methoxybenzamide]				< 30 nM	> 10000 nM	< 30 nM
COc1cc(C(=O)NC2CC3(CCN(CC4CCN(c5ccc(C6CCC(=O)NC6=O)cc5F)CC4)CC3)C2)ccc1Nc1ncc2c(n1)N(C)CC(F)(F)C(=O)N2C (centres unmarked) [Compound 5, 4-((7,7-difluoro-5,9-dimethyl-6-oxo-6,7,8,9-tetrahydro-5H-pyrimido[4,5-b][1,4]diazepin-2-yl)amino)-N-(7-((1-(4-(2,6-dioxopiperidin-3-yl)-2-fluorophenyl)piperidin-4-yl)methyl)-7-azaspiro[3.5]nonan-2-yl)-3-methoxybenzamide]	++ (++: <0.5)			< 100 nM	> 10000 nM	< 100 nM

Further lines, with some results ahead:

Activity: ratio of the luminescence value of compound treatment group to DMSO treatment group (PLK1)	Structure (SMILES)	Cytotoxicity in normal cell line versus cancer cell lines (in words) (MRC-5 cell line; MRC-5 normal cell line compared with cancer cell lines)	IC50 (MRC-5 cell line; [1])	IC50 (NCI-H526 cell line)	IC50 (MRC-5 cell line; [2])	IC50 (NCI-H69 cell line)
+++ (+++: <0.3)	COc1cc(C(=O)NC2CC3(CCN(CCC4CCN(c5ccc(NC6CCC(=O)NC6=O)cc5F)CC4)CC3)C2)ccc1Nc1ncc2c(n1)N(C(C)C)CC(F)(F)C(=O)N2C (centres unmarked) [Compound 31, 4-((7,7-difluoro-9-isopropyl-5-methyl-6-oxo-6,7,8,9-tetrahydro-5H-pyrimido[4,5-b][1,4]diazepin-2-yl)amino)-N-(7-(2-(1-(4-((2,6-dioxopiperidin-3-yl)amino)-2-fluorophenyl)piperidin-4-yl)ethyl)-7-azaspiro[3.5]nonan-2-yl)-3-methoxybenzamide]			< 30 nM		< 30 nM
++ (++: <0.5)	COc1cc(C(=O)NC2CC3(CCN(CCC4CCN(c5cc(F)c(NC6CCC(=O)NC6=O)cc5F)CC4)CC3)C2)ccc1Nc1ncc2c(n1)N(C(C)C)CC(F)(F)C(=O)N2C (centres unmarked) [Compound 61, 4-((7,7-difluoro-9-isopropyl-5-methyl-6-oxo-6,7,8,9-tetrahydro-5H-pyrimido[4,5-b][1,4]diazepin-2-yl)amino)-N-(7-(2-(1-(4-((2,6-dioxopiperidin-3-yl)amino)-2,5-difluorophenyl)piperidin-4-yl)ethyl)-7-azaspiro[3.5]nonan-2-yl)-3-methoxybenzamide]			< 30 nM		< 30 nM
++ (++: <0.5)	COc1cc(C(=O)NC2CCN(CCC3CCN(c4cc(F)c(NC5CCC(=O)NC5=O)cc4F)CC3)CC2)ccc1Nc1ncc2c(n1)N(C(C)C)CC(F)(F)C(=O)N2C (centres unmarked) [Compound 62, 4-((7,7-difluoro-9-isopropyl-5-methyl-6-oxo-6,7,8,9-tetrahydro-5H-pyrimido[4,5-b][1,4]diazepin-2-yl)amino)-N-(1-(2-(1-(4-((2,6-dioxopiperidin-3-yl)amino)-2,5-difluorophenyl)piperidin-4-yl)ethyl)piperidin-4-yl)-3-methoxybenzamide]			< 30 nM		< 30 nM
+++ (+++: <0.3)	COc1cc(C(=O)NC2CC3(CCN(CC4CCN(c5cc(F)c(NC6CCC(=O)NC6=O)cc5F)CC4)CC3)C2)ccc1Nc1ncc2c(n1)N(C1CCCC1)CC(F)(F)C(=O)N2C (centres unmarked) [Compound 70, 4-((9-cyclopentyl-7,7-difluoro-5-methyl-6-oxo-6,7,8,9-tetrahydro-5H-pyrimido[4,5-b][1,4]diazepin-2-yl)amino)-N-(7-((1-(4-((2,6-dioxopiperidin-3-yl)amino)-2,5-difluorophenyl)piperidin-4-yl)methyl)-7-azaspiro[3.5]nonan-2-yl)-3-methoxybenzamide]			< 30 nM		< 30 nM
